# Assay results from patent US20260347338A1, “PYRIMIDINE/PYRIDINE DERIVATIVES OR SALTS THEREOF AND PHARMACEUTICAL COMPOSITIONS COMPRISING THE SAME” (YUHAN CORPORATION, priority 2023, published 2026).
# Counter-ions that a name gives are not always drawn.
# Target: T1, human recombinant HPK1 (Homo sapiens, UniProt Q92918)
# T1 construct: purchased BPS Bioscience
# Test: Inhibitory activity against human recombinant HPK1 (TR-FRET)
# Assay type: biochemical
# Conditions: ULight-p70S6K peptide, ATP at Km, room temperature, 1 hour, 0.32 to 1000 nM compound
# In short: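 IC50 classes A–D use 10, 50 and 100 nM cut-offs, derived from TR-FRET signal inhibition relative to DMSO controls. Human recombinant HPK1 phosphorylated ULight-p70S6K peptide at Km ATP for 1 h, room temperature, pH 7.4; test range 0.32–1000 nM final, detection with Eu-labelled antibody after EDTA quench.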
# T1 sequence (Q92918 whole entry): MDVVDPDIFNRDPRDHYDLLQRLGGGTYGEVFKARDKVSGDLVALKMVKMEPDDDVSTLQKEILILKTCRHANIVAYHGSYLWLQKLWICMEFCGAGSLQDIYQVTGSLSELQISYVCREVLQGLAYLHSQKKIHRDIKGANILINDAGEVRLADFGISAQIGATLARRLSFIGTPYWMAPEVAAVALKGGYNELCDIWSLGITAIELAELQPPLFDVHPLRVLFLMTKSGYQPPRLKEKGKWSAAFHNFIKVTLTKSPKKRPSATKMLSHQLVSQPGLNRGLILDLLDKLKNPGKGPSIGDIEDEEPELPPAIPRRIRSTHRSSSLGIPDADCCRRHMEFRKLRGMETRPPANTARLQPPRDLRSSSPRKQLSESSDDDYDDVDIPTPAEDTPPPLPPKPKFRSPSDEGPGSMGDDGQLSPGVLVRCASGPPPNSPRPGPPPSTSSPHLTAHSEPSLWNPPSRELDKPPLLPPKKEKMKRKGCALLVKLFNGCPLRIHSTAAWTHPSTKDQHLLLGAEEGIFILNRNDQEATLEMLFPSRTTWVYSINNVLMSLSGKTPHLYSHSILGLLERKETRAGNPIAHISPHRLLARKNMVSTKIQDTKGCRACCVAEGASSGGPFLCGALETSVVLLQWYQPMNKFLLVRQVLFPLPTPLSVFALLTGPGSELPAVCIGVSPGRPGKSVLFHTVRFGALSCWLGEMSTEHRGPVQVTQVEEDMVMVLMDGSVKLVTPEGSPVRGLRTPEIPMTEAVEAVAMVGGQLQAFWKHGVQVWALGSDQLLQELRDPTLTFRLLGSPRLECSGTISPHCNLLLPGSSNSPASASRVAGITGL
row,IC50 [µM],Compound
1,≤ 0.01,"COc1cccc(F)c1-c1nc(Nc2cc(N3CC[C@@H](F)[C@H](N)C3)c(-c3cnn(C(F)F)c3)cn2)ccc1F [Example 341, 4-((3R,4R)-3-amino-4-fluoropiperidin-1-yl)-5-(1-(difluoromethyl)-1H-pyrazol-4-yl)-N-(5-fluoro-6-(2-fluoro-6-methoxyphenyl)pyridin-2-yl)pyridin-2-amine hydrochloride]"
2,≤ 0.01,"COc1cccc(F)c1-c1nc(Nc2cc(N3CCC[C@H](O)C3)c(C(=O)N[C@@H]3CC[C@@H](O)C3)cn2)ccc1[N+](=O)[O-] [Example 194, 6-((6-(2-fluoro-6-methoxyphenyl)-5-nitropyridin-2-yl)amino)-N-((1R,3R)-3-hydroxycyclopentyl)-4-((S)-3-hydroxypiperidin-1-yl)nicotinamide]"
3,≤ 0.01,"COc1cccc(F)c1-c1nc(Nc2cc(N3CCC[C@H](O)C3)c(C#CC3CCOCC3)cn2)ccc1C(N)=O [Example 140, 2-(2-fluoro-6-methoxyphenyl)-6-((4-((S)-3-hydroxypiperidin-1-yl)-5-((tetrahydro-2H-pyran-4-yl)ethynyl)pyridin-2-yl)amino)nicotinamide]"
4,≤ 0.01,"COc1cc(CO)cc(F)c1-c1nccc(Nc2cc(N3CCC[C@H](O)C3)c(-c3cnn(C4CCOCC4)c3)cn2)n1 [Example 161, (S)-1-(2-((2-(2-fluoro-4-(hydroxymethyl)-6-methoxyphenyl)pyrimidin-4-yl)amino)-5-(1-(tetrahydro-2H-pyran-4-yl)-1H-pyrazol-4-yl)pyridin-4-yl)piperidin-3-ol]"
5,≤ 0.01,"COc1cccc(F)c1-c1nccc(Nc2cc(N3CCC[C@H](N)C3)c(-c3ccc(C(=O)N4CCN(CCO)CC4)cc3)cn2)n1 [Example 288, (S)-(4-(4-(3-aminopiperidin-1-yl)-6-((2-(2-fluoro-6-methoxyphenyl)pyrimidin-4-yl)amino)pyridin-3-yl)phenyl)(4-(2-hydroxyethyl)piperazin-1-yl)methanone hydrochloride]"
6,≤ 0.01,"COc1cc(F)cc(F)c1-c1nc(Nc2cc(N3CCC[C@H](O)C3)c(-c3cnn(C(F)F)c3)cn2)ccc1[N+](=O)[O-] [Example 183, (3S)-1-(2-((6-(2,4-difluoro-6-methoxyphenyl)-5-nitropyridin-2-yl)amino)-5-(1-(difluoromethyl)-1H-pyrazol-4-yl)pyridin-4-yl)piperidin-3-ol]"
7,≤ 0.01,"COc1cccc(F)c1-c1nccc(Nc2cc(N3CCC[C@@H](N)C3)c(-c3cnn(CC(F)(F)F)c3)cn2)n1 [Example 77, (R)-N-(4-(3-aminopiperidin-1-yl)-5-(1-(2,2,2-trifluoroethyl)-1H-pyrazol-4-yl)pyridin-2-yl)-2-(2-fluoro-6-methoxyphenyl)pyrimidin-4-amine hydrochloride]"
8,≤ 0.01,"COc1cccc(F)c1-c1nccc(Nc2cc(N(C)C3CCC(O)CC3)c(-c3cnn(C(F)F)c3)cn2)n1 [Example 214, (1S,4S)-4-((5-(1-(difluoromethyl)-1H-pyrazol-4-yl)-2-((2-(2-fluoro-6-methoxyphenyl)pyrimidin-4-yl)amino)pyridin-4-yl)(methyl)amino)cyclohexan-1-ol]"
9,≤ 0.01,"COc1cccc(F)c1-c1nc(Nc2cc(N3CCC[C@H](N)C3)c(-c3cnn(C(F)F)c3)cn2)ccc1N [Example 151, N^2-(4-((S)-3-aminopiperidin-1-yl)-5-(1-(difluoromethyl)-1H-pyrazol-4-yl)pyridin-2-yl)-6-(2-fluoro-6-methoxyphenyl)pyridin-2,5-diamine hydrochloride]"
10,≤ 0.01,"COc1cccc(F)c1-c1nccc(Nc2cc(N3CCC[C@H](O)C3)c(-c3cnn(C)c3)cn2)n1 [Example 12, (S)-1-(2-((2-(2-fluoro-6-methoxyphenyl)pyrimidin-4-yl)amino)-5-(1-methyl-1H-pyrazol-4-yl)pyridin-4-yl)piperidin-3-ol]"
11,≤ 0.01,"COc1cc(F)cc(F)c1-c1nccc(Nc2cc(N3C[C@@H](N)C[C@H](F)C3)c(-c3cnn(CC(F)(F)F)c3)cn2)n1 [Example 333, N-(4-((3S,5S)-3-amino-5-fluoropiperidin-1-yl)-5-(1-(2,2,2-trifluoroethyl)-1H-pyrazol-4-yl)pyridin-2-yl)-2-(2,4-difluoro-6-methoxyphenyl)pyrimidin-4-amine hydrochloride]"
12,≤ 0.01,"COc1cccc(F)c1-c1nccc(Nc2cc(N3CCC[C@@H](C(F)F)C3)c(-c3cnn(C(F)F)c3)cn2)n1 [Example 273, (R)-N-(5-(1-(difluoromethyl)-1H-pyrazol-4-yl)-4-(3-(difluoromethyl)piperidin-1-yl)pyridin-2-yl)-2-(2-fluoro-6-methoxyphenyl)pyrimidin-4-amine]"
13,≤ 0.01,"COc1cccc(F)c1-c1nccc(Nc2cc(N3CCC[C@H](N)C3)c(-c3ccc(C(=O)N4CCN(C)CC4)cc3)cn2)n1 [Example 176, (S)-(4-(4-(3-aminopiperidin-1-yl)-6-((2-(2-fluoro-6-methoxyphenyl)pyrimidin-4-yl)amino)pyridin-3-yl)phenyl)(4-methylpiperazin-1-yl)methanone hydrochloride]"
14,≤ 0.01,"COc1cccc(F)c1-c1nccc(Nc2cc(N3CCC[C@H](N)C3)c(-c3ccc(NC(C)=O)cc3)cn2)n1 [Example 279, (S)-N-(4-(4-(3-aminopiperidin-1-yl)-6-((2-(2-fluoro-6-methoxyphenyl)pyrimidin-4-yl)amino)pyridin-3-yl)phenyl)acetamide hydrochloride]"
15,≤ 0.01,"COc1cccc(F)c1-c1nccc(Nc2cc(N3CC[C@@H](F)[C@H](O)C3)c(-c3cnn(C4CCOCC4)c3)cn2)n1 [Example 94, (3R,4R)-4-fluoro-1-(2-((2-(2-fluoro-6-methoxyphenyl)pyrimidin-4-yl)amino)-5-(1-(tetrahydro-2H-pyran-4-yl)-1H-pyrazol-4-yl)pyridin-4-yl)piperidin-3-ol]"
16,≤ 0.01,"COc1cccc(F)c1-c1nccc(Nc2cc(N3CCC(C(F)(F)F)CC3)c(-c3cnn(C4CCOCC4)c3)cn2)n1 [Example 87, 2-(2-fluoro-6-methoxyphenyl)-N-(5-(1-(tetrahydro-2H-pyran-4-yl)-1H-pyrazol-4-yl)-4-(4-(trifluoromethyl)piperidin-1-yl)pyridin-2-yl)pyrimidin-4-amine]"
17,≤ 0.01,"COc1cccc(F)c1-c1nccc(Nc2cc(N3CC[C@H](N)C3)c(-c3cnn(C4CCOCC4)c3)cn2)n1 [Example 97, (S)-N-(4-(3-aminopyrrolidin-1-yl)-5-(1-(tetrahydro-2H-pyran-4-yl)-1H-pyrazol-4-yl)pyridin-2-yl)-2-(2-fluoro-6-methoxyphenyl)pyrimidin-4-amine hydrochloride]"
18,0.01 to 0.05,"OC1CN(Cc2csc(-c3nccc(Nc4cc(N5CCC[C@H](O)C5)c(-c5cnn(C6CCOCC6)c5)cn4)n3)c2)C1 [Example 188, (S)-1-(2-((2-(4-((3-hydroxyazetidin-1-yl)methyl)thiophen-2-yl)pyrimidin-4-yl)amino)-5-(1-(tetrahydro-2H-pyran-4-yl)-1H-pyrazol-4-yl)pyridin-4-yl)piperidin-3-ol]"
19,0.01 to 0.05,"COc1cccc(F)c1-c1nccc(Nc2cc(N3CCC[C@H](O)C3)c(-c3ccc(C(=O)N4CCOCC4)nc3)cn2)n1 [Example 37, (S)-(6′-((2-(2-fluoro-6-methoxyphenyl)pyrimidin-4-yl)amino)-4′-(3-hydroxypiperidin-1-yl)-[3,3′-bipyridin]-6-yl)(morpholino)methanone]"
20,≤ 0.01,"COc1cccc(F)c1-c1nccc(Nc2cc(N3CCC[C@H](N)C3)c(-c3ccc(OCCN(C)C)nc3)cn2)n1 [Example 249, (S)-4-(3-aminopiperidin-1-yl)-6′-(2-(dimethylamino)ethoxy)-N-(2-(2-fluoro-6-methoxyphenyl)pyrimidin-4-yl)-[3,3′-bipyridin]-6-amine hydrochloride]"
21,≤ 0.01,"COc1cccc(F)c1-c1nc(Nc2cc(N3CCC[C@H](O)C3)c(-c3cnn(C4CCOCC4)c3)cn2)ccc1Cl [Example 75, (3S)-1-(2-((5-chloro-6-(2-fluoro-6-methoxyphenyl)pyridin-2-yl)amino)-5-(1-(tetrahydro-2H-pyran-4-yl)-1H-pyrazol-4-yl)pyridin-4-yl)piperidin-3-ol]"
22,0.05 to 0.1,"O=C(c1cnc(Nc2ccnc(-c3cccc(O)c3)n2)cc1N1CCC[C@H](O)C1)C1CC1 [Example 4, (S)-cyclopropyl(6-((2-(3-hydroxyphenyl)pyrimidin-4-yl)amino)-4-(3-hydroxypiperidin-1-yl)pyridin-3-yl)methanone]"
23,0.05 to 0.1,"COc1cccc(F)c1-c1nccc(Nc2cc(N3CCC[C@H](N)C3)c(-c3cn(C)nc3C(F)(F)F)cn2)n1 [Example 131, (S)-N-(4-(3-aminopiperidin-1-yl)-5-(1-methyl-3-(trifluoromethyl)-1H-pyrazol-4-yl)pyridin-2-yl)-2-(2-fluoro-6-methoxyphenyl)pyrimidin-4-amine hydrochloride]"
24,≤ 0.01,"COc1cc(F)cc(F)c1-c1nccc(Nc2cc(N3CCC[C@H](N)C3)c(C#CC3(O)CCOCC3)cn2)n1 [Example 312, (S)-4-((4-(3-aminopiperidin-1-yl)-6-((2-(2,4-difluoro-6-methoxyphenyl)pyrimidin-4-yl)amino)pyridin-3-yl)ethynyl)tetrahydro-2H-pyran-4-ol]"
25,≤ 0.01,"COc1cc(F)cc(F)c1-c1nccc(Nc2cc(N3CCC[C@H](N)C3)c(-c3cnn(C(F)F)c3)cn2)n1 [Example 108, (S)-N-(4-(3-aminopiperidin-1-yl)-5-(1-(difluoromethyl)-1H-pyrazol-4-yl)pyridin-2-yl)-2-(2,4-difluoro-6-methoxyphenyl)pyrimidin-4-amine hydrochloride]"
26,0.05 to 0.1,"COc1cccc(F)c1-c1nccc(Nc2cc(N3CCCC(NC(C)=O)C3)c(-c3cnn(C4CCOCC4)c3)cn2)n1 (centres unmarked) [Example 86, N-(1-(2-((2-(2-fluoro-6-methoxyphenyl)pyrimidin-4-yl)amino)-5-(1-(tetrahydro-2H-pyran-4-yl)-1H-pyrazol-4-yl)pyridin-4-yl)piperidin-3-yl)acetamide]"
